# Source: publication PMC7910904, “Improving the Antioxidant Properties of Calophyllum inophyllum Seed Oil from French Polynesia: Development and Biological Applications of Resinous Ethanol-Soluble Extracts” (Antioxidants, 2021)
# Target: T1, proteinase K (PTA) (Parengyodontium album, UniProt P06873)
# T1 construct: purchased Sigma-Aldrich
# Assay: Proteinase inhibitory activity
# Assay type: biochemical
# Settings: compounds at 150 µg/mL
# Protocol: Anti-inflammatory properties of the extracts were evaluated by their proteinase and lipoxygenase inhibitory activities as described. Briefly, PTA (0.06 mg) was dissolved in 2 mL of Tris HCl buffer (20 mM, pH 7.4) containing a suspension of each extract (100–600 µg/mL). The mixture was incubated at 37 °C for 5 min, and 1 mL of 4% BSA was added. Incubation was prolonged for 20 min, and afterwards 2 mL of 5% trichloroacetic acid was added to the mixture. After centrifugation (3000 rpm, 10 min, 4 °C) the absorbance was read at 210 nm against buffer as blank, and the percentage of proteinase inhibition activity was calculated. Experiments were performed in triplicate and averaged. The anti-inflammatory drug diclofenac (100–300 µg/mL) was used as a standard for comparison.
# T1 sequence (P06873 106-384): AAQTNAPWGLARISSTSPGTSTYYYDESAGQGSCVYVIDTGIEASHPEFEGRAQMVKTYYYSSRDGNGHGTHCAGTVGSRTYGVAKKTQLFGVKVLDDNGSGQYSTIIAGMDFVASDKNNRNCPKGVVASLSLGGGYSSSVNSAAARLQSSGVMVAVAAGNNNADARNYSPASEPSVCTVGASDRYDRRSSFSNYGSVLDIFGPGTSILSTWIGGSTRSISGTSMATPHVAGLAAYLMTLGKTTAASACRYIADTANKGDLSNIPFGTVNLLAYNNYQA
smiles,measurement,value
O=C(O)Cc1ccccc1Nc1c(Cl)cccc1Cl [Diclofenac],inhibition at 150 µg/mL,64 ± 2%
